This experiment deals with tyramine oxidase (microbial). Briefly: Compound was evaluated for inhibition of Microbial tyramine oxidase; irreversible.

The term IC50 denotes the point on the concentration scale where inhibition reaches its midpoint. `NNC(=O)C1(c2ccccc2)CC1F` (stereo unspecified) [2-Fluoro-1-phenyl-cyclopropanecarboxylic acid hydrazide] had an IC50 of 20 µM. That is a double-digit micromolar value.

The values above are taken from BindingDB's records for doi:10.1021/jm030398k (National Institute of Diabetes and Digestive and Kidney …, 2004).
